Measurements taken from US20090232735A1, “USE OF FRUCTOSE-BASED THERAPIES FOR THE TREATMENT OF CANCER” (CEDARS-SINAI MEDICAL CENTER, priority 2005, published 2009).
Entries after “also recorded” stand apart in the source; their conditions may differ.

Test system: PANC-1 pancreatic cancer cells
Experiment: PANC-1 pancreatic cancer cell proliferation (MTS assay)
Assay type: cell-based, human
Settings: oxythiamine 0.5 mM, 72 h, MTS
Procedure: FIG. 13 depicts higher proliferation rates in pancreatic cancer cells in fructose (5.5 mM) than glucose (5.5 mM) containing medium in accordance with an embodiment of the present invention. PANC-1 cells were pre-incubated in 2 mM glucose, after which they were plated in 5.5 mM fructose or glucose for times between 12-72 h, after which proliferative rates were measured using an MTS assay. Proliferative rates are expressed as the percentage difference between cells grown in 5.5 mM fructose versus 5.5 mM glucose. p<0.01 for times>48 h.
FIG. 14 depicts proliferation rates of pancreatic cells in different fructose or glucose concentrations in accordance with an embodiment of the present invention. PANC-1 cells were plated in a range of fructose or glucose concentrations (5-25 mM) for 72 h, after which proliferative rates were measured using an MTS assay. *, p<0.05 for concentrations between 5-25 mM fructose versus glucose.
FIG. 17 depicts cell proliferation regardless of co-existent glucose concentration in accordance with an embodiment of the present invention. PANC-1 cells were pre-incubated in 2 mM glucose prior to treatment with a range of concentrations (0-15 mM) mixed with a range of fructose concentrations (0-15 mM) for 72 h. PANC-1 cell proliferative rates were then measured using the MTS assay (absorbance in arbitrary units).
FIG. 35 depicts inhibition of pancreatic cancer PANC-1 cell proliferation by incubation with the transketolase inhibitor, oxythiamine (0.5-2 mM) for 72 h in accordance with an embodiment of the present invention. Proliferative rates were measured using the MTS proliferation assay.
Standard media for maintenance cancer cell line culture, including pancreatic cancer cells such as PANC-1 cells contain either low—(5-7 mM), or high—(12-25 mM) glucose concentrations. Clearly, apart from the setting of hyperglycemia, as in patients with diabetes, the glucose concentrations in which pancreatic cancer cells are maintained in vitro are much higher than normal physiological conditions, which range between 2-5 mM glucose. […] Therefore, the inventors first pre-treated the pancreatic cancer cells overnight in standard DMEM medium containing low physiological glucose concentrations (2 mM glucose), and standard 10% fetal bovine serum. The pancreatic cancer cells were then incubated for times between 12, and 96 hours in standard DMEM medium containing 10% fetal bovine serum, and 5.5 mM glucose or 5.5 mM fructose. Proliferative rates were then measured in replicate (minimum of 6) aliquot wells of the pancreatic cancer cells, and the change (expressed as percent increase) in proliferative rates compared between cells grown in glucose, or fructose containing medium.
This first result intrigued the inventors, but given there is little documentation regarding physiological fructose concentrations, the inventors first considered that the “apparent” pro-proliferative effects of fructose were simply a consequence of the highly stylized in vitro experimental conditions, and that if the pancreatic cancer cells were cultured in higher glucose concentrations, this would result in similar proliferative rates to those the inventors observed following culture in 5.5 mM fructose. Therefore, in the next experiments, the inventors compared proliferative rates of the PANC-1 pancreatic cancer cells following culture for 72 h in a range of fructose, and glucose concentrations (2-25 mM). This timepoint was chosen as the inventors had seen maximal pancreatic cancer cell proliferation in 5.5 mM fructose at 72 h. […] While not wishing to be bound by any particular theory, the inventors believe that this latter finding may be because the PANC-1 cells are proliferating at close to maximal capacity by 72 h, once they are exposed to comparatively low fructose concentrations (5 mM). MTS assay was employed to measure pancreatic cancer cell proliferative rates, which utilizes mitochondrial oxidation to quantify cell proliferation. […]

## Cc1ncc(C[n+]2csc(CCO)c2C)c(=O)[nH]1 [oxythiamine, reference compound]
5.5 mM fructose
  fructose-mediated increase in pancreatic cancer cell proliferation: virtually abolished; also recorded: almost completely abrogate
  glucose-induced and fructose-induced PANC-1 proliferation: inhibited
